Measurements reported in patent US9434711B2 (Janssen Pharmaceutica, NV, priority 2007, dated 2016).

Biological target: canine TRPM8 (Canis lupus familiaris, UniProt Q1A7N1)
Assay: In Vitro Canine TRPM8 Functional Assay (Ca2+ fluorescence, icilin activation)
Assay type: cell-based
Conditions: for IC50: HEK293 cells stably expressing canine TRPM8, icilin activation, eight-point dose-response, read-out: IC50; for inhibition at 0.2 µM: compound at 0.2 μM, canine TRPM8, icilin activation, read-out: % Inh @ 0.2
Procedure, shortened: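 HEK293 cells stably expressing canine TRPM8 loaded with Calcium 3 dye; compound added and Ca2+ fluorescence monitored 5 min before icilin at a final level giving ~80% maximal response, read on FLIPR or FDSS. EC50 or IC50 from eight-point dose-response, quadruplicate wells per point.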

Sequence of canine TRPM8 (Q1A7N1 1-1104): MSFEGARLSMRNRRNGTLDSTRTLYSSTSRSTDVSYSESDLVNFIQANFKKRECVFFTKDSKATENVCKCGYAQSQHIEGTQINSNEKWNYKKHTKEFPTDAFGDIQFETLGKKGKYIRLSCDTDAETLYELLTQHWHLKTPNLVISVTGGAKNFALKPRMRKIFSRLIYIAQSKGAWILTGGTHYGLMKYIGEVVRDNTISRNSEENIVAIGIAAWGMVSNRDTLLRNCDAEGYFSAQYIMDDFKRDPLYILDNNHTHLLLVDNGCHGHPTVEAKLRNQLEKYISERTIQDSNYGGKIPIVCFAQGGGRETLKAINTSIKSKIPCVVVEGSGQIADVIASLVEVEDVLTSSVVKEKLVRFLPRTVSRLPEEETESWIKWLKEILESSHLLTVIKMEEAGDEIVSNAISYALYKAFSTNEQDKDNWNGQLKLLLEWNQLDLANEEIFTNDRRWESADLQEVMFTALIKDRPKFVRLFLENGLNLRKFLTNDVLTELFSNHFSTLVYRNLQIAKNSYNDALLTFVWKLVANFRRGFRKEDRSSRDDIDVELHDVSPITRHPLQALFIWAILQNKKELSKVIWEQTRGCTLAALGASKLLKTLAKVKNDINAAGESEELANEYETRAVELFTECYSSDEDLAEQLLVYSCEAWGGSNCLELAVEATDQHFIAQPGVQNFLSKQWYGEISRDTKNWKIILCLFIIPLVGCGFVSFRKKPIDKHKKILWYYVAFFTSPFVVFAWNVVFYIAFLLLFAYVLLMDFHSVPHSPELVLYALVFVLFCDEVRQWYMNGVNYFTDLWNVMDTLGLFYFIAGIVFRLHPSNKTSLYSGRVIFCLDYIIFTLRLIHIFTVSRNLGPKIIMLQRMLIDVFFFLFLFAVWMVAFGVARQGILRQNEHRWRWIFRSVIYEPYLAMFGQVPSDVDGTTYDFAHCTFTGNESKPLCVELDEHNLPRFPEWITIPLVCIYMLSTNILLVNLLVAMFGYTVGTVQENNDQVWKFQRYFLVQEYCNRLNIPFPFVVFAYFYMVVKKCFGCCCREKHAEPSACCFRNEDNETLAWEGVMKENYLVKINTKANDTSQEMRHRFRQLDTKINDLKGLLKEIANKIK

Row | Structure (SMILES) | IC50 [nM] | inhibition at 0.2 µM [%]
1 | O=S(=O)(CC(F)(F)F)N(Cc1ccc(F)c(C(F)(F)F)c1)c1sc2ccccc2c1Br [Compound 702, N-(3-Bromo-benzo[b]thiophen-2-yl)-N-(4-fluoro-3-trifluoromethyl-benzyl)-2,2,2-trifluoro-ethanesulfonamide] | 23 | 99
2 | O=S(=O)(CC(F)(F)F)N(Cc1ccc(F)c(C(F)(F)F)c1)c1sc2ccccc2c1Cl [Compound 703, N-(3-Chloro-benzo[b]thiophen-2-yl)-N-(4-fluoro-3-trifluoromethyl-benzyl)-2,2,2-trifluoro-ethanesulfonamide] | 51 | 80
3 | O=S(=O)(CC(F)(F)F)N(Cc1ccc(F)c(C(F)(F)F)c1)c1sc2ccccc2c1CO [Compound 704, N-(3-Hydroxymethyl-benzo[b]thiophen-2-yl)-N-(4-fluoro-3-trifluoromethyl-benzyl)-2,2,2-trifluoro-ethanesulfonamide] | – | 102
4 | CNS(=O)(=O)N(Cc1ccc(F)c(C(F)(F)F)c1)c1sc2ccccc2c1Br [Compound 705, N-(3-Bromo-benzo[b]thiophen-2-yl)-N-(4-fluoro-3-trifluoromethyl-benzyl)-N′-methyl-sulfamide] | 19 | 101
5 | CS(=O)(=O)Nc1cccc(S(=O)(=O)N(CCC(F)(F)F)c2cc3ccccc3s2)c1 [Compound 713, N-(Benzo[b]thiophen-2-yl)-3-methanesulfonylamino-N-(3,3,3-trifluoro-propyl)-benzenesulfonamide] | – | 47

The remaining lines, values ahead:

Row | IC50 [nM] | inhibition at 0.2 µM [%] | Structure (SMILES)
6 | 14 | 102 | O=c1[nH]c(-c2ccc(S(=O)(=O)N(CCC3CC3)c3sc4ccccc4c3Br)cc2)ns1 [Compound 706, N-(3-Bromo-benzo[b]thiophen-2-yl)-N-(cyclopropyl-ethyl)-4-(5-oxo-4,5-dihydro-[1,2,4]thiadiazol-3-yl)-benzenesulfonamide]
7 | 3 | 102 | O=C(O)c1ccc(S(=O)(=O)N(CCCCC(F)(F)F)c2sc3ccccc3c2Br)c(F)c1 [Compound 707, N-(3-Bromo-benzo[b]thiophen-2-yl)-N-(5,5,5-trifluoro-pentyl)-2-fluoro-4-carboxy-benzenesulfonamide]
8 | 13 | 102 | O=c1[nH]c(-c2ccc(S(=O)(=O)N(CCC(F)(F)F)c3sc4ccccc4c3Br)cc2)ns1 [Compound 708, N-(3-Bromo-benzo[b]thiophen-2-yl)-N-(3,3,3-trifluoro-propyl)-4-(5-oxo-4,5-dihydro-[1,2,4]thiadiazol-3-yl)-benzenesulfonamide]
9 | 6 | 102 | O=C(O)c1ccc(S(=O)(=O)N(CCC2CC2)c2sc3ccccc3c2Br)c(F)c1 [Compound 709, N-(3-Bromo-benzo[b]thiophen-2-yl)-N-(2-cyclopropyl-ethyl)-2-fluoro-4-carboxy-benzenesulfonamide]
10 | 7 | 102 | O=C(O)c1ccc(S(=O)(=O)N(CCC(F)(F)F)c2sc3ccccc3c2Br)c(F)c1 [Compound 710, N-(3-Bromo-benzo[b]thiophen-2-yl)-N-(3,3,3-trifluoro-propyl)-2-fluoro-4-carboxy-benzenesulfonamide]
11 | 2 | 102 | O=C(O)c1ccc(S(=O)(=O)N(Cc2ccc(F)c(C(F)(F)F)c2)c2sc3ccccc3c2Br)c(F)c1 [Compound 711, N-(3-Bromo-benzo[b]thiophen-2-yl)-N-(4-fluoro-3-trifluoromethyl-benzyl)-2-fluoro-4-carboxy-benzenesulfonamide]
12 | 4 | 102 | O=c1[nH]c(-c2ccc(S(=O)(=O)N(CCCCC(F)(F)F)c3sc4ccccc4c3Br)cc2)ns1 [Compound 712, N-(3-Bromo-benzo[b]thiophen-2-yl)-N-(5,5,5-trifluoro-pentyl)-4-(5-oxo-4,5-dihydro-[1,2,4]thiadiazol-3-yl)-benzenesulfonamide]
